Measurements published in US6716850B2, “Non-nucleoside reverse transcriptase inhibitors” (Medivir AB, priority 2001, dated 2004).

biological target: T1, HIV-1 reverse transcriptase (Human immunodeficiency virus type 1 group M subtype B, UniProt P04585); assay: activity of separated optical isomers (test not stated); conditions: second eluting peak on chiral AGP column
T1 construct: active against reverse transcriptase, especially that of HIV-1

| Molecule | activity of the more slowly eluting isomer, typically negative rotation |
| --- | --- |
| N#Cc1ccc(NC(=O)N[C@@H]2[C@@H]3COc4c(F)ccc(F)c4[C@@H]32)nc1 [Example 30, (−)-cis-1-(5-Cyano-pyridin-2-yl)-3-(4,7-difluoro-1,1a,2,7b-tetrahydro-cyclopropa[c]chromen-1-yl)-urea] | particularly active |
| O=C(Nc1ccc(Cl)cn1)N[C@H]1C2c3c(F)ccc(F)c3OC[C@H]21 (single isomer, unassigned; (-)) [Example 31, (−) cis-1-(5-Chloro-pyridin-2-yl)-3-(4,7-difluoro-1,1a,2,7b-tetrahydro-cyclopropa[c]chromen-1-yl)-urea] | particularly active |

system: HIV-1IIIB (wild type); assay: XTT assay in MT-4 cells infected with wild type HIV-1IIIB; assay type: cell-based; conditions: Human immunodeficiency virus 1, MT4, read-out: ED50
Procedure: Compounds of the invention are assayed for HIV activity, for example using multiple determinations with XTT in MT-4 cells (Weislow et al, J Nat Cancer Inst 1989, vol 81 no 8, 577 et seq), preferably including determinations in the presence of 40-50% human serum to indicate the contribution of protein binding. In short the XTT assay uses human T cell line MT4 cells grown in RPMI 1640 medium supplemented with 10% fetal calf serum (or 40-50% human serum as appropriate), penicillin and streptomycin seeded into 96 well microplates (2·10^4 cells/well) infected with 10-20 TCID50 per well of HIV-1IIIB (wild type) or mutant virus, such as those bearing RT lie 100, Cys 181 or Asn 103 mutations. Serially diluted test compounds are added to respective wells and the culture incubated at 37° C. in a CO2 enriched atmosphere and the viability of cells is determined at day five or six with XTT vital dye. Results are typically presented as ED50 μM.

| Molecule | EC50 [nM] |
| --- | --- |
| N#Cc1ccc(NC(=O)N[C@@H]2[C@@H]3COc4c(F)ccc(F)c4[C@@H]32)nc1 [Example 30, (−)-cis-1-(5-Cyano-pyridin-2-yl)-3-(4,7-difluoro-1,1a,2,7b-tetrahydro-cyclopropa[c]chromen-1-yl)-urea] | 3 |
| N#Cc1ccc(NC(=O)NC2C3Sc4ccccc4C23)nc1 (racemic) [Example 43, (+/−)cis N-[1a,6b-dihydro-1H-benzo[b]cyclopropa[d]thien-1-yl]-N′-(5-cyano-2-pyridinyl)-urea] | 2 |
| N#Cc1ccc(NC(=O)N[C@@H]2[C@@H]3COc4c(Br)ccc(F)c4[C@@H]32)nc1 [Example 24, cis-1-(4-Bromo-7-fluoro-1,1a,2,7b-tetrahydro-cyclopropa[c]chromen-1-yl)-3-(5-cyano-pyridin-2-yl)-urea] | 20 |
| N#Cc1ccc(NC(=O)N[C@@H]2[C@@H]3COc4cc(F)cc(F)c4[C@@H]32)nc1 (relative stereo) [Example 23, 1-(5-Cyano-pyridin-2-yl)-3-(5,7-difluoro-1,1a,2,7b-tetrahydro-cyclopropa[c]chromen-1-yl)urea] | 7 |
| N#Cc1ccc(NC(=O)N[C@@H]2[C@@H]3COc4c(Cl)ccc(Cl)c4[C@@H]32)nc1 [Example 33, +/−-cis-N-(5-cyano-2-pyridinyl)-N′-(4,7-dichloro-1,1a,2,7b-tetrahydrocyclopropa[c]chromen-1-yl)urea] | 9 |
| O=C(Nc1ccc(Cl)cn1)N[C@H]1C2c3c(F)ccc(F)c3OC[C@H]21 (single isomer, unassigned; (-)) [Example 31, (−) cis-1-(5-Chloro-pyridin-2-yl)-3-(4,7-difluoro-1,1a,2,7b-tetrahydro-cyclopropa[c]chromen-1-yl)-urea] | 2.5 |

same assay, conditions: XTT assay, MT-4 cells, wild type HIV-1IIIB; read-out: ED50 (the source's name)

| Molecule | EC50 [nM] |
| --- | --- |
| O=C(Nc1ccc(Oc2ccccc2)cn1)N[C@@H]1[C@@H]2COc3c(F)ccc(F)c3[C@@H]21 (relative stereo) [Example 20, +/−cis-1-(4,7-Difluoro-1,1a,2,7b-tetrahydro-cyclopropa[c]chromen-1-yl)-3-(5-phenoxy-pyridin-2-yl)-urea] | 7 |
| (+/−)-cis-1-(5-Cyano-3-methyl-pyridin-2-yl)-3-(4,7-difluoro-1,1a,2,7b-tetrahydro-cyclopropa[c]chromen-1-yl)-urea [Example 16] | 6 |
| N#Cc1ccc(NC(=O)NC2C3COc4c(Cl)ccc(F)c4C32)nc1 (racemic) [Example 7, (±)-cis-1-(5-Cyano-pyridin-2-yl)-3-(7-fluoro-4-chloro-1,1a,2,7b-tetrahydro-cyclopropa[c]chromen-1-yl)-urea] | 7 |
| (+/−)-cis-1-(5-Bromo-pyridin-2-yl)-3-(4,7-difluoro-1,1a,2,7b-tetrahydro-cyclopropa[c]chromen-1-yl)-urea [Example 19] | 10 |
| (+/−)-cis-1-(4,7-Difluoro-1,1a,2,7b-tetrahydro-cyclopropa[c]chromen-1-yl)-3-(5-ethynyl-pyridin-2-yl)-urea [Example 18] | 6 |
